Test system: SARS-CoV S protein
Type: cell-based

CC(=O)N[C@@H](CC(C)C)C(=O)N[C@@H](CC(C)C)C(=O)N[C@H](C=O)CCCNC(=N)N [leupeptin]
effect on cell-cell fusion: reduced
